Experimental data published in patent publication US7074785B2, “Δ1-pyrrolines used as pesticides” (Bayer Cropscience AG, priority 2001, dated 2006).
Where two headings read alike, the source gives them in different places.

Tests used:
[1] = tested on: Heliothis virescens caterpillars; assay: Heliothis virescens test; format: in vivo; settings: 100 ppm, soya bean shoots dipped
Text: (§1) Solvent: 7 parts by weight of dimethylformamide

[2] = tested on: army worm (Spodoptera frugiperda) caterpillars; assay: Spodoptera frugiperda test; format: in vivo; settings: in Brassica oleracea, 168 h, read-out: Kill rate in % after 7 d, 100 ppm, cabbage leaves dipped, Spodoptera frugiperda
[3] = tested on: greenhouse red spider mite (Tetranychus urticae); assay: Tetranychus test (OP resistant/dip treatment); format: in vivo; settings: 168 h, read-out: Kill rate in % after 7 d, 100 ppm, bean plants dipped, Tetranychus urticae OP-resistant
Experimental: Tetranychus Test (OP Resistant/Dip Treatment)
as §1
After the desired period of time, the effect in % is determined.

[4] = tested on: caterpillars of the cabbage moth (Plutella xylostella), resistant strain; assay: Plutella test, resistant strain; format: in vivo; settings: 100 ppm, cabbage leaves dipped
Text: Plutella Test, Resistant Strain
as §1

[5] = logP determination by HPLC (reversed-phase C18, EEC Directive 79/831 Annex V.A8); format: physicochemical
Experimental: The logP values stated in the above tables and Preparation Examples are determined in accordance with EEC Directive 79/831 Annex V.A8 by HPLC (High Performance Liquid Chromatography) using a reversed-phase column (C 18). Temperature: 43° C.
In the acidic range at pH 2.3 the determination takes place using 0.1% aqueous phosphoric acid and acetonitrile as the mobile phases; linear gradient from 10% acetonitrile to 90% acetonitrile. Corresponding results are marked in the tables by “a)”
In the neutral range at pH 7.5 the determination takes place using 0.01 molar aqueous phosphate buffer solution and acetonitrile as the mobile phases; linear gradient from 10% acetonitrile to 90% acetonitrile. Corresponding results are marked in the tables by “b)”
Calibration is carried out using unbranched alkan-2-ones (having 3 to 16 carbon atoms), with known logP values (the logP values determined on the basis of the retention times using linear interpolation between two successive alkanones).

[6] = tested on: army worm (Spodoptera exigua) caterpillars; assay: Spodoptera exigua test; format: in vivo; settings: 100 ppm, cabbage leaves dipped
Text: as §1

[7] = tested on: larvae of the mustard beetle (Phaedon cochleariae); assay: Phaedon larvae test; settings: in Brassica oleracea, 168 h, read-out: Kill rate in % after 7 d, 100 ppm, cabbage leaves dipped, Phaedon cochleariae larvae
[8] = tested on: caterpillars of the cabbage moth (Plutella xylostella, sensitive strain); assay: Plutella test, sensitive strain; format: in vivo; settings: 100 ppm, cabbage leaves dipped
Text: Plutella Test, Sensitive Strain
as §1

[9] = tested on: Boophilus microplus resistant/SP-resistant Parkhurst strain, adult satiated females; assay: Test with Boophilus microplus resistant/SP-resistant Parkhurst strain; format: in vivo; settings: injected into abdomen, fertile egg deposition after 7 days
Experimental: Test with Boophilus microplus Resistant/SP-Resistant Parkhurst Strain
Test animals: Adult satiated females
(§2) Solvent: Dimethyl sulphoxide
20 mg of active compound are dissolved in 1 ml of dimethyl sulphoxide. Lower concentrations are prepared by dilution in the same solvent.
The test is carried out in 5 replications. 1 μl of the solutions is injected into the abdomen, and the animals are transferred to dishes and kept in a climate-controlled room. After 7 days, activity is checked by examination for deposition of fertile eggs. Eggs whose fertility is not externally visible are stored in glass tubes in a controlled-environment cabinet until the larvae have hatched. An activity of 100% denotes that none of the ticks has laid fertile eggs.

[10] = tested on: Adult Musca domestica, Reichswald strain (OP, SP, carbamate-resistant); assay: Test with flies (Musca domestica); format: in vivo; settings: filter paper disc
Experimental: Test with Flies (Musca domestica)
Test animals: Adult Musca domestica, Reichswald strain (OP, SP, carbamate-resistant)
as §2
20 mg of active compound are dissolved in 1 ml dimethyl sulphoxide. Lower concentrations are prepared by dilution with distilled water.
2 ml of this active compound preparation are pipetted on filter paper discs (Ø9.5 cm) in Petri dishes of corresponding dimensions. After the filter discs have been dried, 25 test animals are transferred to the Petri dishes, which are then covered.
After 1, 3, 5, 24 and 48 hours the activity of the active compound preparation is measured. 100% means that all flies have been killed, 0% means that no fly has been killed.

[11] = HPLC, acidic range pH 2.3, 0.1% aqueous phosphoric acid/acetonitrile; marked a), read-out: log P (pH 2.3)
[12] = HPLC, neutral range pH 7.5, 0.01 molar phosphate buffer/acetonitrile; marked b), read-out: log P (pH 7.5)

| chromatographic logP ([5]; reversed-phase C18 HPLC column; HPLC, acidic range pH 2.3, 0.1% aqueous phosphoric acid/acetonitrile; marked a), read-out: log P (pH 2.3)) | chromatographic logP ([5]; reversed-phase C18 HPLC column; HPLC, neutral range pH 7.5, 0.01 molar phosphate buffer/acetonitrile; marked b), read-out: log P (pH 7.5)) | SMILES | Kill rate in % after 7 d [1] | pest or weed control at 100 ppm [2] | pest or weed control at 100 ppm [3] | Kill rate in % after 7 d [4] | chromatographic logP [5, 11] | chromatographic logP [5, 12] | Kill rate in % after 7 d [6] | pest or weed control at 100 ppm [7] | Kill rate in % after 7 d [8] | Activity/kill in % ([9]; 20 μg/animal) | Activity/kill in % ([9]; 100 μg/animal) | Activity/kill in % ([9]; 4 μg/animal) | Activity/kill in % ([10]; 20 ppm) | Activity/kill in % ([10]; 100 ppm) |
| --- | --- | --- | --- | --- | --- | --- | --- | --- | --- | --- | --- | --- | --- | --- | --- | --- |
|  |  | CCOC(=O)Nc1ccc(-c2ccc(C3CCC(c4c(F)cccc4F)=N3)cc2)cc1 (stereo not drawn) [Compound 6] | 100% | ≥ 95% | ≥ 85% | 100% | 2.62 | 3.85 | 100% | ≥ 85% | 100% |  |  |  |  |  |
|  |  | CC(C)OC(=O)Nc1ccc(-c2ccc(C3CCC(c4c(F)cccc4F)=N3)cc2)cc1 (stereo not drawn) [Compound 7] | 100% | ≥ 95% | ≥ 85% | 100% | 3 | 4.19 | 100% | ≥ 85% | 100% | 0% | 40% |  |  |  |
|  |  | CC(C)COC(=O)Nc1ccc(-c2ccc(C3CCC(c4c(F)cccc4F)=N3)cc2)cc1 (stereo not drawn) [Compound 8] | 100% |  |  | 100% | 3.32 | 4.54 | 100% |  | 100% | 40% | 80% | 0% |  |  |
| 1.71 | 2.78 | CNC(=O)Nc1ccc(-c2ccc(C3CCC(c4c(F)cccc4F)=N3)cc2)cc1 (stereo not drawn) [Compound 13] |  |  |  |  |  |  |  |  |  |  |  |  | 0% | 30% |
